Laboratory results published in patent US11739077B2, “Small molecule inhibitors of ubiquitin specific protease 1 (USP1) and uses thereof” (Insilico Medicine IP Limited, priority 2021, dated 2023).

How the values were obtained:
[1] = biological target: Human recombinant USP1/UAF1 (Homo sapiens (Human), UniProt O94782); assay: Enzymatic assay, USP1/UAF1 with Ubiquitin Rhodamine 110; format: biochemical; conditions: 2 nM USP1/UAF1, 500 nM Ubiquitin Rhodamine 110, 15 minutes preincubation at RT
Experimental: Human recombinant USP1/UAF1 expressed in baculovirus infected Sf21 cells were used (R&D, E-568-050). Test compound and/or vehicle was incubated with 2 nM of USP1/UAF1 in modified HEPES buffer pH 8.0 for 15 minutes at RT. The reaction was initiated by addition of 500 nM of Ubiquitin Rhodamine 110 (R&D, U-555-050) for kinetic reading. Slope change of fluorescence intensity was read spectrofluorimetrically at 485 nm/535 nm.

MDA-MB-436 cells = assay: MDA-MB-436 breast cancer cell proliferation assay (CellTiter-Glo); format: cell-based; conditions: Homo sapiens, 168 h, 7 days
Experimental: MDA-MB-436 cells were grown in Leibovitz's L-15 medium with 10 ug/ml insulin, 16 ug/ml glutathione, 10% FBS. Cells were passaged at subconfluence after trypsinization and maintained in incubators at 37° C. in a humidified atmosphere with 5% CO2.
Cell proliferation was determined using CellTiter-Glo® Luminescent Cell Viability Assay (Promega, #G7573). MDA-MB-436 cells were seeded in 384-well plates and allowed to attach for 24 h. Compounds were added into 384-well plate by ECHO, and incubated at 37° C. in a humidified atmosphere with 5% CO2. After 7 days, CellTiter-Glo was added into 384 well plates, contents were mixed on an orbital shaker at […] for 2 min before centrifuging the plate for 2 min at 1000 rpm. After incubation at RT for 30 min, luminescence was read on envision.

Chain of Human recombinant USP1/UAF1 (O94782 whole entry): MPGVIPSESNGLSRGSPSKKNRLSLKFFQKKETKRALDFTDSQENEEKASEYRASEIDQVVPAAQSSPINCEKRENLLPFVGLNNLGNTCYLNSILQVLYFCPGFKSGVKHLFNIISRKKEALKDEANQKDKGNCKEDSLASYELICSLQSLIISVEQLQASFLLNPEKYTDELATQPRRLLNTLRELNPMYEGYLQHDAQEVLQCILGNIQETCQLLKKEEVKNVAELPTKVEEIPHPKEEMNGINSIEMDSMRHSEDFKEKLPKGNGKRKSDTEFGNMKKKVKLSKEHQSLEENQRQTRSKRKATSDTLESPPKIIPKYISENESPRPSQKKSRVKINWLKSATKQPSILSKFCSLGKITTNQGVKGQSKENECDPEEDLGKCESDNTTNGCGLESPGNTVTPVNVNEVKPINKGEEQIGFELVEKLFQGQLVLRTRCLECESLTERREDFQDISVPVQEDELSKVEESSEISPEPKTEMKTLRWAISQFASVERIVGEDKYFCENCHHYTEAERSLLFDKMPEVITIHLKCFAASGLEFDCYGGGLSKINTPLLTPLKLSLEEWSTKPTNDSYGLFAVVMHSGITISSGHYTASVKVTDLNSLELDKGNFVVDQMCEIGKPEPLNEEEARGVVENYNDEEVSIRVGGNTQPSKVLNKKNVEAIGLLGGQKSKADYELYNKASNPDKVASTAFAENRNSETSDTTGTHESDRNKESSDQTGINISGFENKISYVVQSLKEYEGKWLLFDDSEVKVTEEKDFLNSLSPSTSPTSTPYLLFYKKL
Chain of Human recombinant USP1/UAF1 (Q8TAF3 whole entry partner): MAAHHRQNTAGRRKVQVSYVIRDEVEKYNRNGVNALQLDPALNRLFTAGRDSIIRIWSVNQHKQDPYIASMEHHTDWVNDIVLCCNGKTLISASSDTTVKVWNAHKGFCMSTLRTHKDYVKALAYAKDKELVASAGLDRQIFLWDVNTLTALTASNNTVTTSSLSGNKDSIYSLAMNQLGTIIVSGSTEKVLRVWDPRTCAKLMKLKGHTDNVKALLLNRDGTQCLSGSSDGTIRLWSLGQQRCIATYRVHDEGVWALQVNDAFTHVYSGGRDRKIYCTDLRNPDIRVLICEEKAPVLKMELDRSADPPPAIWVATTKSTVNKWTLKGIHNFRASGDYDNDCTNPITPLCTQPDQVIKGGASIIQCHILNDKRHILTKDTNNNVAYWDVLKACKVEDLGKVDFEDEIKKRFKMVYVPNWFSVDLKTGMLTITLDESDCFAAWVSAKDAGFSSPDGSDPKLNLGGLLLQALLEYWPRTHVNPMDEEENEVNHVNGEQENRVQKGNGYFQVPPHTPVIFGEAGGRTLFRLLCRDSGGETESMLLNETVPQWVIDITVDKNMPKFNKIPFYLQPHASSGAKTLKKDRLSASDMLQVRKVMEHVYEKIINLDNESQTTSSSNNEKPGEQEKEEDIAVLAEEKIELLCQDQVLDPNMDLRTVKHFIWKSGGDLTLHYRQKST

Compound | IC50 [1] | IC50 (MDA-MB-436 cells)
CCn1nc(-c2c(OC)ncnc2C2CC2)c2c1CCN(c1ccc(-c3nc(C(F)(F)F)cn3C)cn1)C2 [Example 16, 3-(4-cyclopropyl-6-methoxypyrimidin-5-yl)-1-ethyl-5-(5-(1-methyl-4-(trifluoromethyl)-1H-imidazol-2-yl)pyridin-2-yl)-4,5,6,7-tetrahydro-1H-pyrazolo[4,3-c]pyridine] | 50 to 1000 nM | 50 to 1000 nM
CC(C)c1ncccc1-c1nn(C)c2c1CN(c1ccc(-c3nc(C(F)(F)F)cn3C)cc1)CC2 [Example 1, 3-(2-isopropylpyridin-3-yl)-1-methyl-5-(4-(1-methyl-4-(trifluoromethyl)-1H-imidazol-2-yl)phenyl)-4,5,6,7-tetrahydro-1H-pyrazolo[4,3-c]pyridine] | < 50 nM | < 50 nM
COc1ncnc(C2CC2)c1-c1nn(C(F)F)c2c1CN(c1ccc(-c3nc(C(F)(F)F)cn3C)cn1)CC2 [Example 31, 3-(4-cyclopropyl-6-methoxypyrimidin-5-yl)-1-(difluoromethyl)-5-(5-(1-methyl-4-(trifluoromethyl)-1H-imidazol-2-yl)pyridin-2-yl)-4,5,6,7-tetrahydro-1H-pyrazolo[4,3-c]pyridine] | < 50 nM | 50 to 1000 nM
COc1ncnc(C2CC2)c1-c1nn(C)c2c1CN(c1cnc(-c3nc(C(F)(F)F)cn3C)nc1)CC2 [Example 26, 3-(4-cyclopropyl-6-methoxypyrimidin-5-yl)-1-methyl-5-(2-(1-methyl-4-(trifluoromethyl)-1H-imidazol-2-yl)pyrimidin-5-yl)-4,5,6,7-tetrahydro-1H-pyrazolo[4,3-c]pyridine] | 50 to 1000 nM | 50 to 1000 nM
COc1ncnc(C2CC2)c1-c1nn(C)c2c1CN(c1ccc(-c3nc(C(F)(F)F)cn3C)c(F)c1)CC2 [Example 8, 3-(4-cyclopropyl-6-methoxypyrimidin-5-yl)-5-(3-fluoro-4-(1-methyl-4-(trifluoromethyl)-1H-imidazol-2-yl)phenyl)-1-methyl-4,5,6,7-tetrahydro-1H-pyrazolo[4,3-c]pyridine] | < 50 nM | < 50 nM
Cn1cc(C(F)(F)F)nc1-c1ccc(N2CCc3c(c(-c4cccnc4OC(F)F)nn3C)C2)cc1 [Example 24, 3-(2-(difluoromethoxy)pyridin-3-yl)-1-methyl-5-(4-(1-methyl-4-(trifluoromethyl)-1H-imidazol-2-yl)phenyl)-4,5,6,7-tetrahydro-1H-pyrazolo[4,3-c]pyridine] | < 50 nM | 50 to 1000 nM
CCn1cc(C(F)(F)F)nc1-c1ccc(N2CCc3c(c(-c4c(OC)ncnc4C4CC4)nn3C)C2)nc1 [Example 25, 3-(4-cyclopropyl-6-methoxypyrimidin-5-yl)-5-(5-(1-ethyl-4-(trifluoromethyl)-1H-imidazol-2-yl)pyridin-2-yl)-1-methyl-4,5,6,7-tetrahydro-1H-pyrazolo[4,3-c]pyridine] | < 50 nM | < 50 nM
[2H]C([2H])([2H])n1nc(-c2c(OC)ncnc2C2CC2)c2c1CCN(c1ccc(-c3nc(C(F)(F)F)cn3C(C)C)cn1)C2 [Example 11, 3-(4-cyclopropyl-6-methoxypyrimidin-5-yl)-5-(5-(1-isopropyl-4-(trifluoromethyl)-1H-imidazol-2-yl)pyridin-2-yl)-1-(methyl-d3)-4,5,6,7-tetrahydro-1H-pyrazolo[4,3-c]pyridine] | < 50 nM | < 50 nM
[2H]C([2H])([2H])n1nc(-c2c(OC)ncnc2C2CC2)c2c1CCN(c1ccc(-c3nc(C(F)(F)F)cn3C(C)C)cc1)C2 [Example 4, 3-(4-cyclopropyl-6-methoxypyrimidin-5-yl)-5-(4-(1-isopropyl-4-(trifluoromethyl)-1H-imidazol-2-yl)phenyl)-1-(methyl-d3)-4,5,6,7-tetrahydro-1H-pyrazolo[4,3-c]pyridine] | < 50 nM | < 50 nM
COc1ncnc(C2CC2)c1-c1nn(C)c2c1CN(c1ccc(-c3nc(C(F)(F)F)cn3C)cn1)CC2 [Example 5, 3-(4-cyclopropyl-6-methoxypyrimidin-5-yl)-1-methyl-5-(5-(1-methyl-4-(trifluoromethyl)-1H-imidazol-2-yl)pyridin-2-yl)-4,5,6,7-tetrahydro-1H-pyrazolo[4,3-c]pyridine] | < 50 nM | < 50 nM
COc1ncnc(C2CC2)c1-c1nn(C)c2c1CN(c1ccc(-c3nc(C(F)(F)F)cn3C)cc1)CC2 [Example 3, 3-(4-cyclopropyl-6-methoxypyrimidin-5-yl)-1-methyl-5-(4-(1-methyl-4-(trifluoromethyl)-1H-imidazol-2-yl)phenyl)-4,5,6,7-tetrahydro-1H-pyrazolo[4,3-c]pyridine] | < 50 nM | < 50 nM
COc1ncnc(C2CC2)c1-c1nn(C)c2c1CN(c1ccc(-c3nc(C(F)(F)F)cn3C(C)C)cn1)CC2 [Example 10, 3-(4-cyclopropyl-6-methoxypyrimidin-5-yl)-5-(5-(1-isopropyl-4-(trifluoromethyl)-1H-imidazol-2-yl)pyridin-2-yl)-1-methyl-4,5,6,7-tetrahydro-1H-pyrazolo[4,3-c]pyridine] | < 50 nM | < 50 nM
CC(C)c1ncncc1-c1nn(C)c2c1CN(c1ccc(-c3nc(C(F)(F)F)cn3C)cc1)CC2 [Example 2, 3-(4-isopropylpyrimidin-5-yl)-1-methyl-5-(4-(1-methyl-4-(trifluoromethyl)-1H-imidazol-2-yl)phenyl)-4,5,6,7-tetrahydro-1H-pyrazolo[4,3-c]pyridine] | 50 to 1000 nM | 50 to 1000 nM
COc1ncnc(C2CC2)c1-c1nn(C)c2c1CN(c1ncc(-c3nc(C(F)(F)F)cn3C)cn1)CC2 [Example 27, 3-(4-cyclopropyl-6-methoxypyrimidin-5-yl)-1-methyl-5-(5-(1-methyl-4-(trifluoromethyl)-1H-imidazol-2-yl)pyrimidin-2-yl)-4,5,6,7-tetrahydro-1H-pyrazolo[4,3-c]pyridine] | < 50 nM | < 50 nM
[2H]C([2H])([2H])n1nc(-c2c(OC)ncnc2C2CC2)c2c1CCN(c1ccc(-c3nc(C(F)(F)F)cn3C)cn1)C2 [Example 18, 3-(4-cyclopropyl-6-methoxypyrimidin-5-yl)-1-(methyl-d3)-5-(5-(1-methyl-4-(trifluoromethyl)-1H-imidazol-2-yl)pyridin-2-yl)-4,5,6,7-tetrahydro-1H-pyrazolo[4,3-c]pyridine] | < 50 nM | < 50 nM
Cc1ncnc(C2CC2)c1-c1nn(C)c2c1CN(c1ccc(-c3nc(C(F)(F)F)cn3C)cn1)CC2 [Example 13, 3-(4-cyclopropyl-6-methylpyrimidin-5-yl)-1-methyl-5-(5-(1-methyl-4-(trifluoromethyl)-1H-imidazol-2-yl)pyridin-2-yl)-4,5,6,7-tetrahydro-1H-pyrazolo[4,3-c]pyridine] | 50 to 1000 nM | 50 to 1000 nM
COc1ncnc(C2CC2)c1-c1nn(C)c2c1CN(c1ccc(-c3nc(C(F)(F)F)cn3C)cc1F)CC2 [Example 7, 3-(4-cyclopropyl-6-methoxypyrimidin-5-yl)-5-(2-fluoro-4-(1-methyl-4-(trifluoromethyl)-1H-imidazol-2-yl)phenyl)-1-methyl-4,5,6,7-tetrahydro-1H-pyrazolo[4,3-c]pyridine] | < 50 nM | < 50 nM
[2H]C([2H])([2H])n1nc(-c2c(OC)ncnc2C2CC2)c2c1CCN(c1ccc(-c3nc(C(F)(F)F)cn3C)c(F)c1)C2 [Example 30, 3-(4-cyclopropyl-6-methoxypyrimidin-5-yl)-5-(3-fluoro-4-(1-methyl-4-(trifluoromethyl)-1H-imidazol-2-yl)phenyl)-1-(methyl-d3)-4,5,6,7-tetrahydro-1H-pyrazolo[4,3-c]pyridine] | < 50 nM | < 50 nM
[2H]C([2H])([2H])n1nc(-c2c(OC)ncnc2C2CC2)c2c1CCN(c1ccc(-c3nc(C(F)(F)F)cn3C)cc1)C2 [Example 17, 3-(4-cyclopropyl-6-methoxypyrimidin-5-yl)-1-(methyl-d3)-5-(4-(1-methyl-4-(trifluoromethyl)-1H-imidazol-2-yl)phenyl)-4,5,6,7-tetrahydro-1H-pyrazolo[4,3-c]pyridine] | < 50 nM | < 50 nM
COc1ncnc(C2CC2)c1-c1nn(C(F)F)c2c1CN(c1ccc(-c3nc(C(F)(F)F)cn3C(C)C)cn1)CC2 [Example 32, 3-(4-cyclopropyl-6-methoxypyrimidin-5-yl)-1-(difluoromethyl)-5-(5-(1-isopropyl-4-(trifluoromethyl)-1H-imidazol-2-yl)pyridin-2-yl)-4,5,6,7-tetrahydro-1H-pyrazolo[4,3-c]pyridine] | < 50 nM | 50 to 1000 nM
COc1ncnc(C2CC2)c1-c1nn(C(F)F)c2c1CN(c1ccc(-c3nc(C(F)(F)F)cn3C)cc1)CC2 [Example 9, 3-(4-cyclopropyl-6-methoxypyrimidin-5-yl)-1-(difluoromethyl)-5-(4-(1-methyl-4-(trifluoromethyl)-1H-imidazol-2-yl)phenyl)-4,5,6,7-tetrahydro-1H-pyrazolo[4,3-c]pyridine] | < 50 nM | < 50 nM
COc1ncnc(C2CC2)c1-c1nn(C)c2c1CN(c1cnc(-c3nc(C(F)(F)F)cn3C)cn1)CC2 [Example 28, 3-(4-cyclopropyl-6-methoxypyrimidin-5-yl)-1-methyl-5-(5-(1-methyl-4-(trifluoromethyl)-1H-imidazol-2-yl)pyrazin-2-yl)-4,5,6,7-tetrahydro-1H-pyrazolo[4,3-c]pyridine] | < 50 nM | < 50 nM
